The results in this text go back to PMC11492252 (Heliyon, 2024).

The structures appear in SMILES notation.

For assay [1], the system named is Escherichia coli (E. coli). Kind of assay: Antimicrobial MIC, broth microdilution. Format: cell-based. (In general: Broth dilution looks for growth in wells or tubes with falling amounts of substance.)
Assay [2] has as its system Candida albicans (C. albicans). Kind of assay: Antifungal MIC, broth microdilution. Format: cell-based.

Regarding `CC(=O)OCC1=C(C(=O)O)N2C(=O)[C@@H](NC(=O)Cc3cccs3)[C@H]2SC1` [Cephalothin], the MIC in assay [1] is < 32 µg/mL.

For the compound `C[C@@H]1C[C@@H]([C@H](O)CC2CC(=O)NC(=O)C2)C(=O)[C@@H](C)C1` [Cycloheximide], the MIC in assay [2] is < 201 µg/mL.

Broadly, the MIC is the lowest concentration found to suppress growth. The low end stands for a more susceptible organism, the high end for a less susceptible organism.
